Measurements reported in PubChem BioAssay AID248 (DTP/NCI, 2004).
“And” between values parts separate entries of the source, which are not always exact repeats. Identical values can stand only once. Toxic doses and inconclusive results are not listed.

Tested on: L1210 leukemia ip in BDF1 mice, survival T/C
Experiment: NCI In Vivo Anticancer Drug Screen. Data for tumor model L1210 Leukemia (intraperitoneal) in B6D2F1 (BDF1) mice
Settings: endpoint: mean survival time, higher = longer survival
Method in brief: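 Transplantable tumor model; survival measured in treated vs vehicle control mice. Value = treated/control.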

[1] = dose: 400.0 mg/kg/injection, schedule: Q01DX009 (ip), vehicle: saline with Tween-80
[2] = dose: 100.0 mg/kg/injection, schedule: Q01DX001 (ip), vehicle: saline
[3] = dose: 200.0 mg/kg/injection, schedule: Q01DX001 (ip), vehicle: saline
[4] = dose: 400.0 mg/kg/injection, schedule: Q01DX001 (ip), vehicle: saline
[5] = dose: 100.0 mg/kg/injection, schedule: Q01DX009 (ip), vehicle: Klucel (hydroxypropylcellulose) (HPC)
[6] = dose: 100.0 mg/kg/injection, schedule: Q04DX003 (ip), vehicle: Klucel (hydroxypropylcellulose) (HPC)
[7] = dose: 200.0 mg/kg/injection, schedule: Q01DX009 (ip), vehicle: Klucel (hydroxypropylcellulose) (HPC)
[8] = dose: 200.0 mg/kg/injection, schedule: Q04DX003 (ip), vehicle: Klucel (hydroxypropylcellulose) (HPC)
[9] = dose: 400.0 mg/kg/injection, schedule: Q01DX009 (ip), vehicle: Klucel (hydroxypropylcellulose) (HPC)
[10] = dose: 400.0 mg/kg/injection, schedule: Q04DX003 (ip), vehicle: Klucel (hydroxypropylcellulose) (HPC)
[11] = dose: 100.0 mg/kg/injection, schedule: Q01DX009 (ip), vehicle: saline
[12] = dose: 200.0 mg/kg/injection, schedule: Q01DX009 (ip), vehicle: saline
[13] = dose: 400.0 mg/kg/injection, schedule: Q01DX009 (ip), vehicle: saline
[14] = dose: 100.0 mg/kg/injection, schedule: Q04DX003 (ip), vehicle: saline with Tween-80
[15] = dose: 200.0 mg/kg/injection, schedule: Q04DX003 (ip), vehicle: saline with Tween-80
[16] = dose: 75.0 mg/kg/injection, schedule: Q01DX001 (ip), vehicle: saline
[17] = dose: 150.0 mg/kg/injection, schedule: Q01DX001 (ip), vehicle: saline

## CCCCCCCCCCCCCCCC[N+]1(CC)CCOCC1
dose: 5.0 mg/kg/injection, schedule: Q01DX001 (ip), vehicle: Klucel (hydroxypropylcellulose) (HPC)
  T/C: 97 % of control
dose: 5.0 mg/kg/injection, schedule: Q01DX001 (ip), vehicle: saline
  T/C: 100 % of control
dose: 5.0 mg/kg/injection, schedule: Q01DX009 (ip), vehicle: Klucel (hydroxypropylcellulose) (HPC)
  T/C: 98 % of control and 103 % of control
dose: 10.0 mg/kg/injection, schedule: Q01DX001 (ip), vehicle: Klucel (hydroxypropylcellulose) (HPC)
  T/C: 113 % of control
dose: 10.0 mg/kg/injection, schedule: Q01DX001 (ip), vehicle: saline
  T/C: 103 % of control
dose: 10.0 mg/kg/injection, schedule: Q01DX009 (ip), vehicle: saline
  T/C: 121 % of control and 88 % of control
dose: 10.0 mg/kg/injection, schedule: Q04DX002 (ip), vehicle: Klucel (hydroxypropylcellulose) (HPC)
  T/C: 98 % of control and 108 % of control
dose: 10.0 mg/kg/injection, schedule: Q04DX002 (ip), vehicle: saline
  T/C: 95 % of control
dose: 20.0 mg/kg/injection, schedule: Q01DX001 (ip), vehicle: Klucel (hydroxypropylcellulose) (HPC)
  T/C: 111 % of control
dose: 20.0 mg/kg/injection, schedule: Q01DX001 (ip), vehicle: saline
  T/C: 103 % of control
dose: 20.0 mg/kg/injection, schedule: Q04DX002 (ip), vehicle: Klucel (hydroxypropylcellulose) (HPC)
  T/C: 98 % of control and 101 % of control
dose: 20.0 mg/kg/injection, schedule: Q04DX002 (ip), vehicle: saline
  T/C: 102 % of control
dose: 40.0 mg/kg/injection, schedule: Q04DX002 (ip), vehicle: Klucel (hydroxypropylcellulose) (HPC)
  T/C: 90 % of control
dose: 40.0 mg/kg/injection, schedule: Q04DX002 (ip), vehicle: saline
  T/C: 95 % of control and 98 % of control
dose: 200.0 mg/kg/injection, schedule: Q04DX002 (ip), vehicle: Klucel (hydroxypropylcellulose) (HPC)
  T/C: 93 % of control
dose: 400.0 mg/kg/injection, schedule: Q04DX002 (ip), vehicle: Klucel (hydroxypropylcellulose) (HPC)
  T/C: 88 % of control

## O=C(N/N=C\c1ccc([N+](=O)[O-])cc1)c1ccncc1
dose: 100.0 mg/kg/injection, schedule: Q01DX009 (ip), vehicle: saline with Tween-80
  T/C: 94 % of control
dose: 200.0 mg/kg/injection, schedule: Q01DX009 (ip), vehicle: saline with Tween-80
  T/C: 94 % of control
[1]
  T/C: 98 % of control

## Cc1noc2c1CCCC2
dose: 100.0 mg/kg/injection, schedule: Q04DX003 (ip), vehicle: carboxymethylcellulose (CMC)
  T/C: 103 % of control
dose: 200.0 mg/kg/injection, schedule: Q04DX003 (ip), vehicle: carboxymethylcellulose (CMC)
  T/C: 106 % of control

## OCC(O)C(O)C(O)C1SCCS1 (stereo unspecified)
[2]
  T/C: 103 % of control
[3]
  T/C: 106 % of control
[4]
  T/C: 104 % of control

## CC(OC(=O)c1ccccc1)c1ccccc1 (stereo unspecified)
[5]
  T/C: 94 % of control
[6]
  T/C: 101 % of control
[7]
  T/C: 100 % of control
[8]
  T/C: 103 % of control
[9]
  T/C: 96 % of control
[10]
  T/C: 101 % of control

## CC(=O)OCC1OC(Sc2cc(Cl)ccc2Cl)C(OC(C)=O)C(OC(C)=O)C1OC(C)=O (stereo unspecified)
[2]
  T/C: 100 % of control
[3]
  T/C: 94 % of control
[4]
  T/C: 100 % of control

## Cc1ccc(S(=O)(=O)N=S(Cc2ccccc2)Cc2ccccc2)cc1
dose: 50.0 mg/kg/injection, schedule: Q01DX001 (ip), vehicle: saline sonified
  T/C: 103 % of control
dose: 100.0 mg/kg/injection, schedule: Q01DX001 (ip), vehicle: saline sonified
  T/C: 108 % of control
dose: 200.0 mg/kg/injection, schedule: Q01DX001 (ip), vehicle: saline sonified
  T/C: 95 % of control

## c1ccncc1
dose: 6.25 mg/kg/injection, schedule: Q01DX009 (ip), vehicle: alcohol
  T/C: 96 % of control
dose: 12.5 mg/kg/injection, schedule: Q01DX009 (ip), vehicle: alcohol
  T/C: 93 % of control
dose: 25.0 mg/kg/injection, schedule: Q01DX009 (ip), vehicle: alcohol
  T/C: 93 % of control
[5]
  T/C: 88 % of control
[11]
  T/C: 93 % of control
[6]
  T/C: 101 % of control
dose: 100.0 mg/kg/injection, schedule: Q04DX003 (ip), vehicle: saline
  T/C: 101 % of control
[12]
  T/C: 93 % of control
[8]
  T/C: 106 % of control
dose: 200.0 mg/kg/injection, schedule: Q04DX003 (ip), vehicle: saline
  T/C: 89 % of control
[13]
  T/C: 86 % of control
[10]
  T/C: 95 % of control
dose: 400.0 mg/kg/injection, schedule: Q04DX003 (ip), vehicle: saline
  T/C: 91 % of control

## CC(C)=CCC(=O)Oc1ccccc1C(=O)O
[14]
  T/C: 92 % of control
[15]
  T/C: 102 % of control

## Cc1nnn(N/N=C(\C(=O)Oc2ccccc2)c2ccccc2)c1C
[6]
  T/C: 100 % of control
[8]
  T/C: 103 % of control
[10]
  T/C: 96 % of control

## O=C1CC(=O)N2C=CC=CC2=N1
[11]
  T/C: 101 % of control
[12]
  T/C: 95 % of control
[13]
  T/C: 92 % of control

## CCC1(O)CC2CN(CCc3c([nH]c4ccccc34)C(C(=O)OC)(c3cc4c(cc3OC)N(C)C3C(O)(C(=O)NCCO)C(O)C5(CC)C=CCN6CCC43C65)C2)C1 (stereo unspecified)
dose: 0.16 mg/kg/injection, schedule: Q01DX009 (ip), vehicle: saline
  T/C: 123 % of control
dose: 0.39 mg/kg/injection, schedule: Q04DX003 (ip), vehicle: saline
  T/C: 158 % of control
dose: 1.2 mg/kg/injection, schedule: Q01DX009 (ip), vehicle: saline
  T/C: 116 % of control
dose: 389.0 micrograms/kg/injection, schedule: Q04DX003 (ip), vehicle: saline
  T/C: 118 % of control
dose: 648.0 micrograms/kg/injection, schedule: Q04DX003 (ip), vehicle: saline
  T/C: 106 % of control
dose: 1080.0 micrograms/kg/injection, schedule: Q04DX003 (ip), vehicle: saline
  T/C: 123 % of control
dose: 5000.0 micrograms/kg/injection, schedule: Q04DX003 (ip), vehicle: saline
  T/C: 115 % of control

## COC(=O)C1=C(C(=O)OC)C2C=CC1C2
[2]
  T/C: 102 % of control
[5]
  T/C: 111 % of control
[3]
  T/C: 94 % of control
[7]
  T/C: 91 % of control
[4]
  T/C: 91 % of control
[9]
  T/C: 97 % of control

## NCCSc1ccccc1C(=O)O
[6]
  T/C: 92 % of control
[8]
  T/C: 112 % of control
[10]
  T/C: 102 % of control

## O=C(Nc1ccc(Cl)cc1)O/N=C/c1ccccn1
dose: 12.5 mg/kg/injection, schedule: Q01DX009 (ip), vehicle: saline with Tween-80
  T/C: 111 % of control
dose: 25.0 mg/kg/injection, schedule: Q01DX009 (ip), vehicle: saline with Tween-80
  T/C: 97 % of control
dose: 50.0 mg/kg/injection, schedule: Q01DX009 (ip), vehicle: saline with Tween-80
  T/C: 94 % of control
dose: 100.0 mg/kg/injection, schedule: Q01DX001 (ip), vehicle: saline with Tween-80
  T/C: 97 % of control
dose: 200.0 mg/kg/injection, schedule: Q01DX001 (ip), vehicle: saline with Tween-80
  T/C: 109 % of control
dose: 400.0 mg/kg/injection, schedule: Q01DX001 (ip), vehicle: saline with Tween-80
  T/C: 101 % of control
[1]
  T/C: 88 % of control

## C=CCC1(C(=C)C)C(=O)NC(=S)NC1=O
dose: 75.0 mg/kg/injection, schedule: Q01DX001 (ip), vehicle: carboxymethylcellulose (CMC)
  T/C: 95 % of control
[16]
  T/C: 91 % of control
dose: 150.0 mg/kg/injection, schedule: Q01DX001 (ip), vehicle: carboxymethylcellulose (CMC)
  T/C: 105 % of control
[17]
  T/C: 102 % of control

## O=C(O)/C(=C\c1ccccc1)Sc1ccccc1
dose: 75.0 mg/kg/injection, schedule: Q01DX001 (ip), vehicle: acetone
  T/C: 105 % of control
dose: 150.0 mg/kg/injection, schedule: Q01DX001 (ip), vehicle: acetone
  T/C: 98 % of control
dose: 300.0 mg/kg/injection, schedule: Q01DX001 (ip), vehicle: acetone
  T/C: 100 % of control

## C[N+]1([O-])C2CCC1CC(OC(=O)C(O)c1ccccc1)C2 (stereo unspecified)
[16]
  T/C: 110 % of control
[17]
  T/C: 100 % of control
dose: 300.0 mg/kg/injection, schedule: Q01DX001 (ip), vehicle: saline
  T/C: 95 % of control

## ICc1cc(CI)c(CI)cc1CI
[14]
  T/C: 92 % of control
[15]
  T/C: 91 % of control
dose: 400.0 mg/kg/injection, schedule: Q04DX003 (ip), vehicle: saline with Tween-80
  T/C: 91 % of control

## O=C(Nc1ccc(N=Nc2ccccc2)cc1)C(F)(F)F
[2]
  T/C: 102 % of control
[3]
  T/C: 109 % of control
[4]
  T/C: 93 % of control
